The values below come from US20050187581A1, “Methods of treating disorders with electric fields” (priority 2000, published 2005).

Experiment [1] is described as follows: Antioxidant activity (AOA) of plasma from AAPH-treated rats, against AAPH. The class given is in vivo, Sprague-Dawley rats. The settings on record: for AOAAAPH: ascorbic acid 500 mg/kg p.o., SOD 50 mg/kg s.c., mean ± SEM, n=8. The protocol: (§1) To examine the effects of EF effect during oxidative stress, rats were divided into five groups (n=8) as follows: 1) non-treatment; 2) treatment with the oxidizing agent, AAPH, on experimental day seven; 3) co-treatment with EF and AAPH; 4) co-treatment with AAPH and the anti-oxidant agent, ascorbic acid; or 5) co-treatment with AAPH and superoxide dismutase. Rats of Group 3 were exposed to a sine wave of 50 Hz, 17,500 V/m intensity, 15 minutes per day for one week. In addition, Groups 1, 2, 4 and 5 were sham EF exposed, in which were maintained for an equal period of time inside the exposure cage with the system turned off. On the seventh day after EF was started, Group 3 was exposed to EF just after administration of AAPH (10 mg/kg, i.p.). In Group 4, ascorbic acid (500 mg/kg, p.o.) was administered 60 minutes before of the AAPH treatment. Superoxide dismutase (50 mg/kg, s.c., Nacalai Tesque, Tokyo, Japan) was administered to Group 5 just before the AAPH treatment. Under pentobarbital (45 mg/kg, i.p.) anesthesia, blood was collected from the abdominal cava vein 90 minutes later after AAPH administration, and the plasma was separated by centrifugation at 1,670×g for 10 minutes at 4° C. The plasma samples were stored at −80° C. until tested.
(§2) Plasma AOA was measured by a method using a derivative of methylene blue. Briefly, 0.1 ml plasma or a solution of ascorbic acid (Wako Ltd., Osaka, Japan) and 0.65 ml distilled water was added into 1.5 ml of Good's buffer adjusted to pH 5.8 (Good et al., 1966), including 1% triton X-100 supplemented with 3,7-bis-demethylamino-10-methyl carbamoyl phenothiazine (MCDP, 40 μM, KYOWA MEDEX Co., Ltd., Tokyo, Japan) and hemoglobin (67.5 μg/ml). After incubation for one minute at 37° C., 0.25 ml of tert-butylhydroperoxide (84 μM, BHP, Aldrich) as an alkoxyl radical initiator was added and reacted for 10 minutes at 37° C. In addition, AOA measurements in a reaction using AAPH (50 mM) as a peroxy radical initiator were conducted in Good's buffer without hemoglobin for 20 minutes at 37° C. A radical initiator not trapped by an antioxidant in each plasma sample will oxidize MCDP. The absorbance of the resultant blue color was subsequently measured by absorbance at 675 nm using a spectrophotometer (150-20, Hitachi). The equation to calculate AOA was the following: AOA (%)=(1−Abs1/Abs2)×100, where Abs1 is the absorbance of the plasma sample, and Abs2 is a value of the blank.

Experiment [2] in a line: Antioxidant activity (AOA) of plasma from AAPH-treated rats, against BHP. The class given is in vivo, Sprague-Dawley rats. The settings on record: for Plasma antioxidant activity against BHP: ascorbic acid 500 mg/kg p.o., SOD 50 mg/kg s.c., mean ± SEM, n=8. The protocol: as §1, §2
Experiment [3] can be described thus: Antioxidant activity (AOA) of rat plasma, ascorbic acid added in the test tube, BHP as radical initiator. The class given is biochemical, Sprague-Dawley rats. The protocol:
(§3) To examine the effects of EF on unstressed rats, rats were exposed to a sine wave of 50 Hz, 17,500 V/m intensity, 15 minutes per day for 1 one week. Each rat in three groups (n=5) was individually treated with an EF or a sham EF, or was not treated. Rats exposed to sham EF were maintained for an equal period of time inside the exposure cage with the system turned off. Under pentobarbital (45 mg/kg, i.p.) anesthesia, blood was collected from the abdominal cava vein after EF exposure on experimental day seven, and the plasma was separated by centrifugation at 1,670×g for 10 minutes at 4° C. The plasma samples were stored at −80° C. until tested.
(§4) Plasma AOA was measured by a method using a derivative of methylene blue. Briefly, 0.1 ml plasma or a solution of ascorbic acid (Wako Ltd., Osaka, Japan) and 0.65 ml distilled water was added into 1.5 ml of Good's buffer adjusted to pH 5.8 (Good et al., 1966), including 1% triton X-100 supplemented with 3,7-bis-demethylamino-10-methyl carbamoyl phenothiazine (MCDP, 40 μM, KYOWA MEDEX Co., Ltd., Tokyo, Japan) and hemoglobin (67.5 μg/ml). […] The absorbance of the resultant blue color was subsequently measured by absorbance at 675 nm using a spectrophotometer (150-20, Hitachi). The equation to calculate AOA was the following: AOA (%)=(1−Abs1/Abs2)×100, where Abs1 is the absorbance of the plasma sample, and Abs2 is a value of the blank.

The test system of a further experiment is AAPH-treated rats. The experiment in a line: Plasma lipid peroxide (TBARS) levels in AAPH-treated rats. The class given is in vivo, Sprague-Dawley rats. Conditions: for Plasma levels of lipid peroxide compared to the sham EF-exposed group: AAPH-treated rats, P<0.05 (ascorbic acid), P<0.01 (superoxide dismutase); for Malondialdehyde concentration: plasma lipid peroxide, AAPH 10 mg/kg i.p., ascorbic acid 500 mg/kg p.o., SOD 50 mg/kg s.c., mean ± SEM, n=8. The protocol: as §1
Thiobarbituric acid reactive substance (TBARS), as an indicator of the plasma concentration of lipid peroxide, was measured using a commercialized kit (Lipid peroxide-test Wako, Wako Ltd., Osaka, Japan).

Experiment [4] in a line: Antioxidant activity (AOA) of rat plasma, ascorbic acid added in the test tube, AAPH as radical initiator. The class given is biochemical, Sprague-Dawley rats. The protocol:
as §3, §4

The next experiment deals with mouse splenocytes. The experiment can be described thus: [Ca^2+]c-high cells in lectin-stimulated mouse splenocytes, fluo-3 flow cytometry. Conditions: 5 μg/ml PHA, 1 mM CaCl2; EF-exposed and unexposed cells. The class given is cell-based, BALB/c mice. The protocol:
In order to avoid contact of the cells and the lower electrode, polycarbonate membrane (Isopore, MILLIPORE, MA USA) was placed between the dish and the insert. Approximately 1 ml of the cell suspension was poured into culture well/space and covered with a lid.
Female BALB/c mice, 4-7 wk old obtained from CLEA Inc. (Tokyo, Japan) maintained in a conventional animal house equipped with clean air-filtering device were splenectomized under anesthesia, and cell suspensions of splenocytes were prepared. To examine cell viability, the cells were cultivated in Dulbecco's modified Eagle's medium (SIGMA, MO, USA) supplemented with 10% fetal bovine serum (FSB). The cells were maintained in Hank's balanced salt solution (HBSS) (SIGMA, MO, USA) during examination for [Ca^2+]c which was carried out within 4 hr after cell preparation. Cells were stored at 4 degree C. prior to use.
Splenocytes (10^6 cells/ml) were incubated for 20 min at 37 degrees C. in HBSS containing 2.5 μM fluo-3-acetoxylmethyl (Molecular Probes, USA) [Vandenberghe et al., 1990]. The cell suspension was then diluted 5 times with HBSS containing 1% FBS, incubated for 40 min at 37 degrees C., washed 3 times with assay buffer, and the cells were then suspended in the assay buffer at a concentration of 1×10^6/ml. Throughout the cell preparation, the cell suspensions were mixed gently.
Considering the reported synergistic interaction between EMF and mitogen (Walleczek and Liburdy, 1990), concanavalin-A (Con-A) (Seikagaku Co., Tokyo, Japan) and phytohemaglutinin (PHA) (SIGMA, MO, USA) were used.
Taking into account the results of the viability test for exposed murine splenocytes earlier assayed, we chose to use the optimum culture and exposure conditions (60 Hz, 6 μA/cm^2 EF) in carrying out the following five experiments: • (1) cells suspended in HEPES-buffered saline (BS)+1 mM CaCl2 were exposed to EF for a total of 40 min, and 12.5 μg/ml of Con-A was added after the first 8 min of exposure. The control groups consisted of EF-unexposed cells containing Con-A, and EF-exposed cells without Con-A. Percent [Ca^2+]c-high cells was checked at certain exposure points; • (2) cells in HEPES-BS+1 mM CaCl2 were exposed for a total of 12 min, and different concentrations (1 ng-12.5 μg/ml) of Con-A were added after the first 4 min of exposure. The control group was essentially the same as that of the experimental group but without EF-exposure; • (3) cells in HEPES-BS+1 mM CaCl2 were exposed for a total of 8 min, and 5 μg/ml of PHA was added after the first 4 min of exposure. The control groups consisted of EF-unexposed cells containing PHA, and EF-exposed cells without PHA; • (4) cells suspended in HEPES-BS without CaCl2 were exposed for a total of 12 min, and different concentrations (1 ng-5 μg/mil) of Con-A were added after the first 4 min of exposure. The control group was essentially the same as the experimental group but without EF exposure; and • (5) to evaluate the persistent effect of EF exposure, cells suspended in HEPES-BS+[…] were exposed for a total of 4 min, after which different concentrations (0.025-12.5 μg/ml) of Con-A were added, and the generation of [Ca^2+]c-high cells for the next 8 min without EF exposure was monitored with flow cytometry. The control was essentially the same as the experimental group but without any EF-exposure. Statistical Analysis

Where [5] appears, read: added to plasma of the non-treatment group, P<0.01.
[6] abbreviates: ascorbic acid 440 ng/ml added to plasma of non-treatment group, mean ± SEM, n=5.

On to `CC(C)(N=NC(C)(C)C(=N)N)C(=N)N.Cl.Cl` [AAPH, 2,2′-azobis(2-amidinopropane)dihydrochloride], for which the “Change in plasma AOA against AAPH in rats treated with AAPH” value in experiment [1] (AAPH 10 mg/kg i.p.) is reported as “suppression”. For the same molecule, the “Change in plasma AOA against BHP in rats treated with AAPH” value in experiment [2] (AAPH 10 mg/kg i.p.) is listed as “did not show any changes”.

Take `O=C1O[C@H]([C@@H](O)CO)C(O)=C1O` [Ascorbic acid, ascorbic acid]: in experiment [3] (setting [5]), the “AOA of plasma against BHP after addition of ascorbic acid” value is on record as “significantly elevated”. Moreover, the AOABHP in experiment [3] (setting [6]) is recorded as 87.7 ± 0.3 %. In experiment [1] (AAPH-treated rats, P<0.01), the “Plasma AOA compared to the other four groups” value is listed as “significantly higher”. In experiment [1] (AAPH-treated rats), the AOAAAPH was determined as 46.3 ± 3.2 %. Further, in the experiment with AAPH-treated rats, the “Plasma levels of lipid peroxide compared to the sham EF-exposed group” value was “lower” and the Malondialdehyde concentration came to 1.509 ± 0.05 nmol/mL. In experiment [4] (setting [5]), the “AOA of plasma against AAPH after addition of ascorbic acid” value is “significantly elevated”. This molecule also had an AOAAAPH in experiment [4] (setting [6]) of 62.0 ± 3.8 %. Moreover, the “AOA against BHP compared to the other four groups” value in experiment [2] (AAPH-treated rats, P<0.01) is given as “increase”. The “Plasma antioxidant activity against BHP” value in experiment [2] (AAPH-treated rats) is given as 87.5 ± 0.3 %.

Take phytohemaglutinin [PHA]: in the experiment on mouse splenocytes, the “[Ca^2+]c-high cells” value is “significant increases”.

superoxide dismutase [SOD]: in experiment [1] (AAPH-treated rats), the “Plasma AOA compared to the sham EF-exposed group” value is recorded as “not different” and the AOAAAPH came to 22.1 ± 2.5%. Also, the “Plasma AOA compared to the non-treatment group” value in experiment [1] (AAPH-treated rats, P<0.05) is listed as “significantly suppressed”. In the experiment with AAPH-treated rats, the “Plasma levels of lipid peroxide compared to the sham EF-exposed group” value is on record as “lower” and the Malondialdehyde concentration was determined as 1.139 ± 0.10 nmol/mL. Besides, in experiment [2] (AAPH-treated rats), the “Plasma antioxidant activity against BHP” value is on record as 78.0 ± 2.1%.
